# In patent EP0330052B1, “Use of benzimidazoles for preparing a medicine with an anti-ischemial activity on the heart, and combinations with betablockers or bradycardics” (Dr. Karl Thomae GmbH, priority 1988, dated 1989):
# Key:
# [1] = Acute toxicity (LD50), mouse; conditions: in vivo, Maus
# [2] = Acute toxicity (LD50), rat; conditions: in vivo, iv, Ratte, read-out: LD₅₀ i.v.
# Hunde = assay: Effect on collateral-dependent residual myocardial perfusion after repeated complete occlusion of the circumflex branch of the left coronary artery (radioactive microspheres); assay type: in vivo; conditions: relative to third occlusion
# Description: 2. Wirkung auf die kollateralabhängige Restperfusion des Myokards nach wiederholter vollständiger Okklusion des umschlingenden Astes der linken Koronararterie
# Hunde (mischrassig, beiderlei Geschlechts, 20-30 kg Körpergewicht) werden mit Morphin (1 mg/kg s.c.) prämediziert und mit Pentobarbital (i.v. 20 mg/kg Bolus gefolgt von einer Dauerinfusion von 8 mg/kg) narkotisiert. Die Körpertemperatur wird mit einem Heizkissen bei 38°C gehalten. Nach endotrachealer Intubation werden die Tiere mit einem Gemisch von 25 % O₂ und 75 % N₂O beatmet. Der linksventrikuläre Druck wird mit einem Mikrodruckwandler gemessen, während der Aortendruck über einen via A. femoralis vorgeschobenen Katheter erfaßt wird. Nach Thoraxeröffnung im linken 5. Interkostalraum wird der Ramus circumflexus der linken Koronararterie freipärpariert und der Meßkopf eines elektromagnetischen Flowmeters darumgelegt. Zur Injektion von radioaktiven Mikrosphären (regionale Perfusionsmessung) wird der linke Vorhof kanüliert. Die Referenzprobe wird über die linke A. femoralis 2 Minuten lang bei einem Fluß von 6 ml/Minute gezogen. Die Registrierung der hämodynamischen Daten erfolgt auf einem IFD Polygraphen.
# Nach einer 30minütigen Äquilibrierungsphase wird der Ramus circumflexus 6 mal im Abstand von jeweils 30 Minuten für 4 Minuten verschlossen. Dabei wird während der 4. Minute eine regionale Perfusionsbestimmung durchgeführt. Die Perfusion des Versorgungsbereiches des Ramus circumflexus ist abhängig von koronaren Kollateralgefäßen. Für die Beurteilung der Kollateralperfusion werden die besonders ischämiegefährdeten subendocardialen Herzmuskelschichten herangezogen. Als Bezugswert vor Substanzgabe dient der jeweilige Flußwert der dritten Okklusion.
# Kaninchen = assay: Influence on infarct size in an ischaemia/reperfusion model (60 min coronary ligation, 30 min reperfusion); assay type: in vivo; conditions: i.v. 10 min before occlusion
# Description: 1. Beeinflussung der Infarktgröße an einem Ischämie/Reperfusionsmodell
# Kaninchen (Russen beiderlei Geschlechts, Körpergewicht 2-2,5 kg) werden mit einem Bolus (40-60 mg/kg i.p.) und nachfolgender Dauerinfusion (10 |g/kg/h) Pentobarbital narkotisiert. Die Körpertemperatur wird bei 38°C gehalten. Nach endotrachealer Intubation werden die Tiere druckkonstant mit einer Mischung aus 50 % O₂ und 50 % N₂ beatmet. Die Kontrolle der Blutgase und des Blut pH erfolgt mit einem Blutgasanalyzer (ABL-2, Radiometer). Zur Messung des linksventrikulären Druckes wurde ein Druckwandler über die A-carotis in die linke Herzkammer geschoben. Der Aortendruck wird über einen via A. femoralis eingeführten Katheter erfaßt. Nach Eröffnung des Thorax im 5. linken Interkostalraum wird die linke absteigende Koronararterie für 60 Minuten ligiert und danach die Koronararterie wieder eröffnet. Nach 30minütiger Reperfusion wird die Arterie an derselben Stelle wieder verschlossen und das normal perfundierte Myokard mit Patentblau (in den linken Vorhof injiziert) angefärbt. Das Herz wird danach in drei Scheiben geschnitten und das bisher ungefärbte, vorher ischämische Gewebe, wird in einem Puffer mit Triphenyltetrazolium angefärbt. Überlebende Herzmuskelreale färben sich ziegelrot, während totes Gewebe bleich erscheint. […]
# [3] = po, read-out: LD₅₀ p.o. (converted)
smiles,measurement,setting,value
"COc1ccc(CCN(C)CCCN2CCc3cc(OC)c(OC)cc3CC2=O)cc1OC [Verbindung E, 1-(7,8-Dimethoxy-1,3,4,5-tetrahydro-2H-3-benzazepin-2-on-3-yl)-3-[N-methyl-N-(2-(3,4-dimethoxyphenyl)-ethyl)-amino]propan]",LD50,"[1]; iv, read-out: LD₅₀ i.v.",89 mg/kg
same,LD50,[1]; [3],1350 mg/kg
"CC1CC(=O)NN=C1c1ccc2nc(-c3ccc(O)cc3)[nH]c2c1 (stereo not shown) [Verbindung B, 2-(4-Hydroxyphenyl)-5-(5-methyl-3-oxo-4,5-dihydro-2H-6-pyridazinyl)-benzimidazol]",LD50,[2],> 100 mg/kg
same,% Änderung des Kollateralflusses pro Herzschlag im subendocardialen ischämischen Myocard,Hunde; Dosis i.v. 95 µg/kg,+182%
"COc1ccc(CCN2CCCC(CN3CCc4cc(OC)c(OC)cc4CC3=O)C2)cc1OC (stereo not shown) [D, 3-[(N-(2-(3,4-Dimethoxyphenyl)-ethyl)-piperidin-3-yl)-methyl]-7,8-dimethoxy-1,3,4,5-tetrahydro-2H-3-benzazepin-2-on]",LD50,"[1]; iv, read-out: LD₅₀ i.v.",50 mg/kg
same,LD50,[1]; [3],720 mg/kg
"COc1ccc(-c2nc3ccc(C4=NNC(=O)CC4C)cc3[nH]2)cc1 (stereo not shown) [Verbindung A, 2-(4-Methoxyphenyl)-5-(5-methyl-3-oxo-4,5-dihydro-2H-6-pyridazinyl)-benzimidazol]",LD50,[1]; [3],600 mg/kg
same,% des ischämischen Myokards infarziert,"Kaninchen; Dosis 0,5 mg/kg",34%
same,LD50,[2],72 mg/kg
same,% Änderung des Kollateralflusses pro Herzschlag im subendocardialen ischämischen Myocard,Hunde; Dosis i.v. 30 µg/kg,+100%
"CC(C)NCC(O)COc1ccc(CC(N)=O)cc1 (stereo not shown) [Atenolol, reference compound]",% des ischämischen Myokards infarziert,"Kaninchen; Dosis 0,3 mg/kg",63%
"Cc1nc2ccc(C3=NNC(=O)CC3C)cc2[nH]1 (stereo not shown) [C, 2-Methyl-5-(5-methyl-3-oxo-4,5-dihydro-2H-6-pyridazinyl)-benzimidazol]",% Änderung des Kollateralflusses pro Herzschlag im subendocardialen ischämischen Myocard,Hunde; Dosis i.v. 10 µg/kg,+101%
same,% Änderung des Kollateralflusses pro Herzschlag im subendocardialen ischämischen Myocard,Hunde; Dosis i.v. 30 µg/kg,+178%
